According to ChEMBL document CHEMBL3871285, “NTS2-selective neurotensin mimetics with tetrahydrofuran amino acids” (Bioorg Med Chem, 2017):
*1 amine or outer side, *2 acyl side, *3 side chain or, on linkers, in order; H or OH if unused. Where a SMILES comes first, the peptide text is derived from it. [ ]: non-standard residue; d: D form. X2 = O=C([C@]1(N[*:1])CCO[C@@H]1c1ccc(Br)cc1)[*:2]; X1 = O=C([C@@]1(N[*:1])CCO[C@H]1c1ccc(O)cc1)[*:2]; X3 = O=C([C@]1(N[*:1])CCO[C@@H]1c1ccc(O)cc1)[*:2]

How the values were obtained:
[1] = molecular target: Neurotensin receptor type 2 (Homo sapiens, UniProt O95665); experiment: Displacement of [leucine-3H]NT (8 to 13 residues) from human NTS2 receptor expressed in HEK293 cell membranes after 60 mins by scintillation counting
[2] = molecular target: Neurotensin receptor type 1 (Homo sapiens, UniProt P30989); experiment: Displacement of [3H]neurotensin from human NTS1 receptor expressed in CHOK1 cell membranes after 60 mins by scintillation counting; design: species or system CHO-K1
[3] = Selectivity ratio of IC50 for human NTS1 receptor expressed in CHOK1 cell membranes to IC50 for NTS2 receptor expressed in HEK293 cell membranes

Neurotensin receptor type 1, sequence (P30989 whole entry): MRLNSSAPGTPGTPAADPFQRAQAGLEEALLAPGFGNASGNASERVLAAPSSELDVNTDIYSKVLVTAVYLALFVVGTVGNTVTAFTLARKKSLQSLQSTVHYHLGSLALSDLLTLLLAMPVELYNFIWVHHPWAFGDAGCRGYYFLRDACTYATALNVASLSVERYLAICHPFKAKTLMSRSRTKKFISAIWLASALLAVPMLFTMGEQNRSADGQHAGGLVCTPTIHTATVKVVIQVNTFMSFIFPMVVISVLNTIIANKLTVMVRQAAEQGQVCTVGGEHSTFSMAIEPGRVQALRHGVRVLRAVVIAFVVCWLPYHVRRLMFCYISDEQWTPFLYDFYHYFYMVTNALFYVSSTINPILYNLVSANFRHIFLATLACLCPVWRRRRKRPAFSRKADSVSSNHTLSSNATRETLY
Neurotensin receptor type 2, sequence (O95665 whole entry, the tested form may be a part): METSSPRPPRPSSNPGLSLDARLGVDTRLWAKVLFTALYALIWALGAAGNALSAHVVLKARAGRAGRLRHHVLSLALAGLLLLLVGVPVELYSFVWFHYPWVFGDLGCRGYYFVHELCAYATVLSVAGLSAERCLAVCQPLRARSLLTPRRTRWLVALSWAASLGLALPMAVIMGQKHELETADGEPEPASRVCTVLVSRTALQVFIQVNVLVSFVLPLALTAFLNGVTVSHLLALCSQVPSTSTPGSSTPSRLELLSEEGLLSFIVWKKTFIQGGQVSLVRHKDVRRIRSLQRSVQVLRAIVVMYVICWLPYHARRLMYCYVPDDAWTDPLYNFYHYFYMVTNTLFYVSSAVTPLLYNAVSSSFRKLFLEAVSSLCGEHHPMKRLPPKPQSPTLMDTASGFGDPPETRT

Row | Ki [1] | Ki [2] | Compound | Ratio Ki [3]
1 | 0.012 µM | – | CC[C@H](C)[C@H](NC(=O)C1(NC(=O)[C@@H]2CCCN2C(=O)[C@H](CCCNC(=N)N)NC(=O)[C@@H](N)CCCNC(=N)N)CCOC1c1ccc(Br)cc1)C(=O)N[C@@H](CC(C)C)C(=O)O (some centres undefined) | –
2 | 0.615 µM | – | CC[C@H](C)[C@H](NC(=O)[C@]1(NC(=O)[C@@H]2CCCN2C(=O)[C@H](CCCNC(=N)N)NC(=O)[C@@H](N)CCCNC(=N)N)CCO[C@@H]1c1ccc(Br)cc1)C(=O)N[C@@H](CC(C)C)C(=O)O | –
3 | 0.873 µM | 2.17 µM | CC[C@H](C)[C@H](NC(=O)[C@@H](Cc1ccc(Br)cc1)NC(=O)[C@@H]1CCCN1C(=O)[C@H](CCCCN)NC(=O)[C@@H](N)CCCCN)C(=O)N[C@@H](CC(C)C)C(=O)O | –
4 | 0.012 µM | – | CC[C@H](C)[C@H](NC(=O)[C@]1(NC(=O)[C@@H]2CCCN2C(=O)[C@H](CCCNC(=N)N)NC(=O)[C@@H](N)CCCNC(=N)N)CCO[C@@H]1c1ccc(O)cc1)C(=O)N[C@@H](CC(C)C)C(=O)O | –
5 | 0.069 µM | 0.093 µM | CC[C@H](C)[C@H](NC(=O)[C@H](Cc1ccc(Br)cc1)NC(=O)[C@@H]1CCCN1C(=O)[C@H](CCCCN)NC(=O)[C@@H](N)CCCCN)C(=O)N[C@@H](CC(C)C)C(=O)O | –
6 | – | 13 µM | CC[C@H](C)[C@H](NC(=O)[C@]1(NC(=O)[C@@H]2CCCN2C(=O)[C@H](CCCCN)NC(=O)[C@@H](N)CCCCN)CCO[C@@H]1c1ccc(Br)cc1)C(=O)N[C@@H](CC(C)C)C(=O)O (H-KKP[X2]IL-OH) | –
7 | 0.11 µM | 5 µM | CC[C@H](C)[C@H](NC(=O)[C@]1(NC(=O)[C@@H]2CCCN2C(=O)[C@H](CCCNC(=N)N)NC(=O)[C@@H](N)CCCCN)CCO[C@@H]1c1ccc(Br)cc1)C(=O)N[C@@H](CC(C)C)C(=O)O (H-KRP[X2]IL-OH) | –
8 | – | 10 µM | CC[C@H](C)[C@H](NC(=O)[C@]1(NC(=O)[C@@H]2CCCN2C(=O)[C@H](CCCCN)NC(=O)[C@@H](N)CCCNC(=N)N)CCO[C@@H]1c1ccc(Br)cc1)C(=O)N[C@@H](CC(C)C)C(=O)O (H-RKP[X2]IL-OH) | –
9 | 0.029 µM | 35 µM | CC(C)C[C@H](NC(=O)CNC(=O)[C@@]1(NC(=O)[C@@H]2CCCN2C(=O)[C@H](CCCNC(=N)N)NC(=O)[C@@H](N)CCCNC(=N)N)CCO[C@H]1c1ccc(O)cc1)C(=O)O (H-RRP[X1]GL-OH) | >1000
10 | 0.7 µM | 20 µM | CC(C)C[C@H](NC(=O)CNC(=O)[C@]1(NC(=O)[C@@H]2CCCN2C(=O)[C@H](CCCNC(=N)N)NC(=O)[C@@H](N)CCCNC(=N)N)CCO[C@@H]1c1ccc(O)cc1)C(=O)O (H-RRP[X3]GL-OH) | –
11 | 27 µM | 67 µM | CC(C)C[C@H](NC(=O)C1(NC(=O)[C@@H]2CCCN2C(=O)[C@H](CCCCN)NC(=O)[C@@H](N)CCCCN)CCOC1c1ccc(Br)cc1)C(=O)O (stereo in doubt; 7-1) | –
12 | 2.03 µM | 95.5 µM | CC(C)C[C@H](NC(=O)C1(NC(=O)[C@@H]2CCCN2C(=O)[C@H](CCCCN)NC(=O)[C@@H](N)CCCCN)CCOC1c1ccc(Br)cc1)C(=O)O (stereo in doubt; 7-2) | –
13 | 28 µM | 53 µM | CC(C)C[C@H](NC(=O)C1(NC(=O)[C@@H]2CCCN2C(=O)[C@H](CCCNC(=N)N)NC(=O)[C@@H](N)CCCCN)CCOC1c1ccc(Br)cc1)C(=O)O (stereo in doubt; 8-1) | –
14 | 11 µM | 92.3 µM | CC(C)C[C@H](NC(=O)C1(NC(=O)[C@@H]2CCCN2C(=O)[C@H](CCCNC(=N)N)NC(=O)[C@@H](N)CCCCN)CCOC1c1ccc(Br)cc1)C(=O)O (stereo in doubt; 8-2) | –
15 | – | 70.5 µM | CC(C)C[C@H](NC(=O)C1(NC(=O)[C@@H]2CCCN2C(=O)[C@H](CCCCN)NC(=O)[C@@H](N)CCCNC(=N)N)CCOC1c1ccc(Br)cc1)C(=O)O (stereo in doubt; 9-1) | –
16 | – | > 100 µM | CC(C)C[C@H](NC(=O)C1(NC(=O)[C@@H]2CCCN2C(=O)[C@H](CCCCN)NC(=O)[C@@H](N)CCCNC(=N)N)CCOC1c1ccc(Br)cc1)C(=O)O (stereo in doubt; 9-2) | –
17 | 49 µM | 91.5 µM | CC(C)C[C@H](NC(=O)C1(NC(=O)[C@@H]2CCCN2C(=O)[C@H](CCCNC(=N)N)NC(=O)[C@@H](N)CCCNC(=N)N)CCOC1c1ccc(Br)cc1)C(=O)O (stereo in doubt; 10-1) | –
18 | 1.43 µM | 72.5 µM | CC(C)C[C@H](NC(=O)C1(NC(=O)[C@@H]2CCCN2C(=O)[C@H](CCCNC(=N)N)NC(=O)[C@@H](N)CCCNC(=N)N)CCOC1c1ccc(Br)cc1)C(=O)O (stereo in doubt; 10-2) | –
19 | 0.5 µM | > 50 µM | CC(C)C[C@H](NC(=O)CNC(=O)C1(NC(=O)[C@@H]2CCCN2C(=O)[C@H](CCCCN)NC(=O)[C@@H](N)CCCCN)CCOC1c1ccc(Br)cc1)C(=O)O (stereo in doubt; 16-1) | –
20 | 1.95 µM | 35 µM | CC(C)C[C@H](NC(=O)CNC(=O)C1(NC(=O)[C@@H]2CCCN2C(=O)[C@H](CCCCN)NC(=O)[C@@H](N)CCCCN)CCOC1c1ccc(Br)cc1)C(=O)O (stereo in doubt; 16-2) | –
